Test results as given in patent publication US8580769B2, “Treatment of obesity, metabolic syndrome, and diabetes with protein kinase C inhibitors” (The United States of America as represented by the …, priority 2011, dated 2013).

Experiments:
total (ι plus ζ) aPKC = experiment: aPKC activity and phosphorylation in intact human hepatocytes; type: cell-based; conditions: for phosphorylation of aPKC auto(trans)phosphorylation sites (p-threonine-555/560-PKC-ι/ζ): intact human hepatocytes
Description: Human cryo-preserved hepatocytes (70-90% viability) were obtained from the Zen-Bio Corp (Research Triangle Park, North Carolina). These hepatocytes were harvested after perfusion with collagenase-containing buffer of livers surgically removed from non-diabetic patients (2 females and 6 males; ages, 43-60 years, 51±3 (mean±SEM); BMI, 23-35, 30±2) and T2DM patients (2 females and 3 males, ages, 46-68 years, 60±4; BMI, 27±2; all insulin-requiring) who had been maintained as transplant donors, but were ultimately rejected for administrative reasons. To maximize the importance of comparative differences, hepatocytes from T2DM and non-diabetic patients, and of similar age and sex, were routinely incubated and assayed side-by-side.
After thawing, the hepatocytes were distributed (approximately 10^6 cells per 100 mm plate) and incubated approximately 16 hours overnight in Dulbecco's minimal essential medium containing 5% fetal calf serum, 100 units/ml sodium-penicillin, 100 μg/ml streptomycin-sulfate, 1 μM insulin and 2 μM dexamethasone. After washing, cells were incubated first for 2 hours in William's E medium (Sigma-Aldrich, St. Louis, Mo., catalog no. W1878) containing GLUTAMAX™ (Gibco/Invitrogen, Carlsbad, Calif.), 100 units/ml sodium-penicillin, 100 μg/ml streptomycin-sulfate, 10 μM insulin, 100 nM dexamethasone, and then for 2 hours in William's E medium containing 100 units/ml sodium penicillin, 100 μg/ml streptomycin-sulfate, 100 nM dexamethasone, 0.25 mg/ml transferrin, 0.25 μg/ml sodium selenite and 10 μM insulin. Cells were then washed and incubated for 3 hours in the same medium, but lacking insulin. Where indicated, […], […] After incubation, cells were sonicated in homogenizing buffer.
Tissue and Immunoprecipitate Preparations: As previously described (Standaert et al., J. Biol. Chem. 279:24929-24934, 2004; Sajan et al., J. Lipid Res. 50:1133-1145, 2009; Sajan et al., Diabetologia 52:1197-1207, 2009; Farese et al., J. Clin. Invest. 117:2289-2301, 2007) hepatocytes and tissues from in vivo experiments were homogenized in ice-cold buffer containing 0.25 M sucrose, 20 mM Tris/HCl (pH 7.5), 2 mM EGTA, 2 mM EDTA, 1 mM phenylmethylsulfonyl fluoride (PMSF), 20 μg/ml leupeptin, 10 μg/ml aprotinin, 2 mM Na4P2O7, 2 mM Na3VO4, 2 mM NaF, and 1 μM microcystin. After centrifugation for 10 minutes at 700×g to remove unbroken cells, debris, nuclei, and floating fat, cell lysates were stored at −70° C. After addition of 1% TRITON® X-100, 0.6% Nonidet and 150 mM NaCl, lysates were cleared of insoluble materials by low-speed centrifugation and subsequently immunoprecipitated with antibodies that target: (a) aPKCs (rabbit polyclonal antiserum from Santa Cruz Biotechnologies (Santa Cruz, Calif.) that recognizes C-termini of both PKC-λ and PKC-ζ); and (b) Akt2 (Upstate Cell Signaling/Millipore, Billerica, Mass.). Immunoprecipitates were collected on Sepharose-AG beads (Santa Cruz Biotechnologies).
aPKCι Assays: aPKC enzyme activity was measured as previously described (Standaert et al., J. Biol. Chem. 279:24929-24934, 2004; Sajan et al., J. Lipid Res. 50:1133-1145, 2009; Sajan et al., Diabetologia 52:1197-1207, 2009; Farese et al., J. Clin. Invest. 117:2289-2301, 2007). […]

Het-MλKO mice = experiment: clinical parameters in Het-MλKO mice (model of obesity/metabolic syndrome/T2DM); type: in vivo, mouse; conditions: for hepatic triglycerides / resting (basal) serum insulin levels: 7-day treatment s.c. (ATM 60 mg/kg; ICAPP 0.4 mg/kg); for serum glucose levels following acute insulin treatment: insulin 1 U/kg i.p.; for basal serum glucose levels (before insulin): s.c. once daily (ICAPP 0.4 mg/kg; ICAP 0.5 mg/kg)
Description: In Vivo Mouse Studies: Male wild type (WT) and heterozygous muscle-specific PKC-λ knockout (Het-MλKO) mice were generated as described (Farese et al., J. Clin. Invest. 117:2289-2301, 2007) and used at 6-12 months of age, when the O/MS/T2DM phenotype in MλKO mice is well-developed. Mice were housed in a temperature-controlled environment with alternating 12-hour light and dark cycles, and fed ad libitum with standard chow (Harlan Teklad 20/18 with 5% fat, (10% of calories from fat)). All experimental procedures in mice were approved by the Institutional Animal Care and Use Committees of the Roskamp Institute and the University of South Florida College of Medicine, and the James A. Haley Veterans Administration Medical Center Research and Development Committee, Tampa, Fla.
(ICAPP; prepared by Southern Research, Birmingham, Ala.) at 0.4 mg/kg body weight. On the morning of the eighth day of inhibitor treatment, mice were injected intraperitoneally (IP) with 0.9% saline or saline containing 1 U insulin/kg body weight 15 minutes before sacrifice, an optimal time for studies of insulin stimulation of aPKC and Akt in liver, muscle and adipose tissues (Standaert et al., J. Biol. Chem. 279:24929-24934, 2004; Sajan et al., J. Lipid Res. 50:1133-1145, 2009; Sajan et al., Diabetologia 52:1197-1207, 2009; Farese et al., J. Clin. Invest. 117:2289-2301, 2007). After killing, blood, liver, quadriceps muscle and abdominal adipose tissues were rapidly removed and homogenized in buffer with a POLYTRON® homogenizer.
Measurements of Serum Triglycerides, Cholesterol, Free Fatty Acids, Insulin and Glucose: Serum triglycerides, cholesterol, free fatty acids, insulin and glucose levels were measured as previously described (Sajan et al., J. Lipid Res. 50:1133-1145, 2009; Sajan et al., Diabetologia 52:1197-1207, 2009; Farese et al., J. Clin. Invest. 117:2289-2301, 2007).
Both aPKC inhibitors were tested in a murine model of O/MS/T2DM, a heterozygous muscle-specific PKC-λ knockout (Het-MλKO) mice, wherein defective insulin-stimulated glucose transport in muscle leads to glucose intolerance, systemic insulin resistance, hyperinsulinemia, increased hepatic aPKC activity, activation of hepatic SREBP-1c and IKKβ/NFκB, and thus to increased expression of hepatic enzymes engaged in lipogenesis and cytokine production, and ultimately to hepatosteatosis, abdominal obesity, hypertriglyceridemia, fatty acidemia, hypercholesterolemia, hyperinsulinemia, glucose intolerance, fasting hyperglycemia, and diminished glucose-lowering effects of acutely administered insulin (Sajan et al., J. Lipid Res. 50:1133-1145, 2009; Farese et al., J. Clin. Invest. 117:2289-2301, 2007).

[1] = Het-MλKO mice, s.c. once daily (ATM 60 mg/kg; ICAPP 0.4 mg/kg; ICAP 0.5 mg/kg)
[2] = ICAP-treated Mλ-Het KO mice (n = 12), 0.5 mg/kg body weight/day x 8 days s.c., mean ± SEM

Row | SMILES | total aPKC activity in intact hepatocytes (total (ι plus ζ) aPKC; human hepatocytes) | phosphorylation of aPKC auto(trans)phosphorylation sites (p-threonine-555/560-PKC-ι/ζ) (total (ι plus ζ) aPKC) | hepatic triglycerides (Het-MλKO mice; Het-MλKO mice) | resting (basal) serum insulin levels (Het-MλKO mice; Het-MλKO mice) | abdominal fat content (Het-MλKO mice; [1]) | serum cholesterol (Het-MλKO mice; [1]) | serum triglycerides (Het-MλKO mice; [1]) | serum glucose levels following acute insulin treatment (Het-MλKO mice; [1]) | insulin-provoked increase in aPKC activity (total (ι plus ζ) aPKC; non-diabetic human hepatocytes, 6 hours, 100 nM insulin, 100 nM ICAP) | basal serum glucose levels (before insulin) (Het-MλKO mice; Het-MλKO mice) | Abdominal fat (Het-MλKO mice; [2]) [mg/g body weight] | Ad lib-fed serum glucose (Het-MλKO mice; [2]) [mg/dL] | serum cholesterol (Het-MλKO mice; [2]) [mg/dL] | serum triglycerides (Het-MλKO mice; [2]) [mg/dL] | PDK1-dependent phosphorylation of activation loop sites of PKC-ι/ζ (threonine-403/410) (total (ι plus ζ) aPKC; human hepatocytes) | basal immunoprecipitable aPKC activity (total (ι plus ζ) aPKC; human hepatocytes, basal (no insulin)) | inhibition of insulin-stimulated total (ι plus ζ) aPKC activity in intact human hepatocytes (total (ι plus ζ) aPKC; non-diabetic human hepatocytes, 4 hours) | serum free fatty acids (Het-MλKO mice; Het-MλKO mice, ICAPP 0.4 mg/kg/day s.c., 7 days) | food intake (Het-MλKO mice; Het-MλKO mice, ICAPP-treated)
1 | O=C([O-])CC([S][Au])C(=O)[O-] (stereo not shown) [ATM, aurothiomalate, reference compound] | diminished | diminished | decreased, virtually to normal | decreased, virtually to normal | decreased, virtually to normal | decreased, virtually to normal | decreased, virtually to normal | decreased, virtually to normal |  |  |  |  |  |  |  |  |  |  | 
2 | NC(=O)c1ncn([C@@H]2C[C@H](CO)[C@@H](O)[C@H]2O)c1N [ICAP, 1H-imidazole-4-carboxamide 5-amino-1-[2,3-dihydroxy-4-[hydroxymethyl]cyclopentyl]-[1R-(1α,2β,3β,4α)]] |  |  |  |  | diminished | diminished | diminished | diminished | inhibited | diminished | 26 ± 3.2 | 139 ± 20 | 108 ± 10 | 104 ± 7 |  |  |  |  | 
3 | NC(=O)c1ncn([C@@H]2C[C@H](COP(=O)(O)O)[C@@H](O)[C@H]2O)c1N [ICAPP, 1H-imidazole-4-carboxamide, 5-amino-1-[2,3-dihydroxy-4-[(phosphonooxy)methyl]cyclopentyl]-[1R-(1α,2β,3β,4α)]] |  | diminished | marked improvements | marked improvements | marked improvements | marked improvements | marked improvements | marked improvements |  | marked improvements |  |  |  |  | did not inhibit | resistant | approximately 50% | marked improvements | not altered
